Assays:
blackgrass [1] = assay: Test C postemergence; type: in vivo, Alopecurus myosuroides; conditions: 10 days
Procedure, shortened: (§1)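 Pre: seeds in loam/sand, directed soil spray. Post: 1–2 leaf plants, 2–10 cm. Cmpd in non-phytotoxic solvent + surfactant. Greenhouse 10 d; visual rating vs untreated, 0 = none, 100 = complete control.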

oat, wild [2] = assay: Test C postemergence; type: in vivo, Avena fatua; conditions: 10 days
Procedure, shortened: as §1

ryegrass, Italian [3] = assay: Test C postemergence; type: in vivo, Lolium multiflorum; conditions: 10 days
Procedure, shortened: as §1

corn [4] = assay: Test C preemergence; type: in vivo, Zea mays; conditions: 0 to 100 scale (0 no effect, 100 complete control)
Procedure, shortened: as §1

horseweed = assay: Test C postemergence; type: in vivo, Erigeron canadensis; conditions: 10 days
Procedure, shortened: as §1

soybean [5] = assay: Test C preemergence; type: in vivo, Glycine max; conditions: 0 to 100 scale (0 no effect, 100 complete control)
Procedure, shortened: as §1

kochia [6] = assay: Test C preemergence; type: in vivo, Bassia scoparia; conditions: 0 to 100 scale (0 no effect, 100 complete control)
Procedure, shortened: as §1

pigweed, palmer [7] = assay: Test C postemergence; type: in vivo, Amaranthus palmeri; conditions: 10 days
Procedure, shortened: as §1

ragweed [8] = assay: Test C postemergence; type: in vivo, Ambrosia artemisiifolia; conditions: 10 days
Procedure, shortened: as §1

wheat [9] = assay: Test C postemergence; type: in vivo, Triticum aestivum; conditions: 10 days
Procedure, shortened: as §1

blackgrass [10] = assay: Test C preemergence; type: in vivo, Alopecurus myosuroides; conditions: 0 to 100 scale (0 no effect, 100 complete control)
Procedure, shortened: as §1

barnyardgrass [11] = assay: Test C preemergence; type: in vivo, Echinochloa crusgalli; conditions: 0 to 100 scale (0 no effect, 100 complete control)
Procedure, shortened: as §1

wheat [12] = assay: Test C preemergence; type: in vivo, Triticum aestivum; conditions: 0 to 100 scale (0 no effect, 100 complete control)
Procedure, shortened: as §1

kochia [13] = assay: Test C postemergence; type: in vivo, Bassia scoparia; conditions: 10 days
Procedure, shortened: as §1

ragweed [14] = assay: Test C preemergence; type: in vivo, Ambrosia artemisiifolia; conditions: 0 to 100 scale (0 no effect, 100 complete control)
Procedure, shortened: as §1

green foxtail [15] = assay: Test C preemergence; type: in vivo, Setaria viridis; conditions: 0 to 100 scale (0 no effect, 100 complete control)
Procedure, shortened: as §1

sedge, umbrella = assay: Test D flooded paddy test; type: in vivo, Cyperus difformis; conditions: 250 g ai/ha, applied to paddy water, visual rating after 13 to 14 days, scale 0 to 100 (0 no effect, 100 complete control)
Procedure, shortened: (§2)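 Rating scale 0–100 (0 no effect, 100 complete control), visual, versus controls. Readout at 13–14 days after in-water application to 2-leaf plants in pots flooded 3 cm deep.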

pigweed, palmer [16] = assay: Test C preemergence; type: in vivo, Amaranthus palmeri; conditions: 0 to 100 scale (0 no effect, 100 complete control)
Procedure, shortened: as §1

rice = assay: Test D flooded paddy test; type: in vivo, Oryza sativa; conditions: 250 g ai/ha, applied to paddy water, visual rating after 13 to 14 days, scale 0 to 100 (0 no effect, 100 complete control)
Procedure, shortened: as §2

soybean [17] = assay: Test C postemergence; type: in vivo, Glycine max; conditions: 10 days
Procedure, shortened: as §1

barnyardgrass [18] = assay: Test C postemergence; type: in vivo, Echinochloa crusgalli; conditions: 10 days
Procedure, shortened: as §1

corn [19] = assay: Test C postemergence; type: in vivo, Zea mays; conditions: 10 days
Procedure, shortened: as §1

galium = assay: Test C postemergence; type: in vivo, Galium aparine; conditions: 10 days
Procedure, shortened: as §1

oat, wild [20] = assay: Test C preemergence; type: in vivo, Avena fatua; conditions: 0 to 100 scale (0 no effect, 100 complete control)
Procedure, shortened: as §1

ryegrass, Italian [21] = assay: Test C preemergence; type: in vivo, Lolium multiflorum; conditions: 0 to 100 scale (0 no effect, 100 complete control)
Procedure, shortened: as §1

green foxtail [22] = assay: Test C postemergence; type: in vivo, Setaria viridis; conditions: 10 days
Procedure, shortened: as §1

barnyardgrass [23] = assay: Test D flooded paddy test; type: in vivo, Echinochloa crus-galli; conditions: 250 g ai/ha, applied to paddy water, visual rating after 13 to 14 days, scale 0 to 100 (0 no effect, 100 complete control)
Procedure, shortened: as §2

ducksalad = assay: Test D flooded paddy test; type: in vivo, Heteranthera limosa; conditions: 250 g ai/ha, applied to paddy water, visual rating after 13 to 14 days, scale 0 to 100 (0 no effect, 100 complete control)
Procedure, shortened: as §2

[24] = 125 g ai/ha, postemergence, 0 to 100 scale, 0 no effect, 100 complete control
[25] = Postemergence, 500 g ai/ha, visual 0 to 100 scale (0 no effect, 100 complete control)
[26] = Preemergence, 500 g ai/ha, visual rating after 10 days
[27] = Test C, preemergence, 125 g ai/ha

CCc1ncn(-c2cc3c(c(C(=O)N4C[C@H](C)Oc5c(Cl)cccc54)c2)OCCO3)n1 [Compound 155]
Plant response rating, Blackgrass (blackgrass [1]; [24]): 90
Plant response rating, Blackgrass (blackgrass [1]; [25]): 100
Plant response rating, Oat, Wild (oat, wild [2]; [24]): 20
Plant response rating, Oat, Wild (oat, wild [2]; [25]): 50
Plant response rating, Ryegrass, Italian (ryegrass, Italian [3]; [24]): 70
Plant response rating, Ryegrass, Italian (ryegrass, Italian [3]; [25]): 100
Plant response rating, Corn (corn [4]; [26]): 50
Corn plant response rating (corn [4]; [27]): 10
Plant response rating, Horseweed (horseweed; [24]): 70
Plant response rating, Horseweed (horseweed; [25]): 70
Plant response rating, Soybean (soybean [5]; [26]): 100
Soybean plant response rating (soybean [5]; [27]): 70
Plant response rating, Kochia (kochia [6]; [26]): 90
Kochia plant response rating (kochia [6]; [27]): 80
Plant response rating, Pigweed, Palmer (pigweed, palmer [7]; [24]): 90
Plant response rating, Pigweed, Palmer (pigweed, palmer [7]; [25]): 100
Plant response rating, Ragweed (ragweed [8]; [24]): 100
Plant response rating, Ragweed (ragweed [8]; [25]): 100
Plant response rating, Wheat (wheat [9]; [24]): 60
Plant response rating, Wheat (wheat [9]; [25]): 80
Plant response rating, Blackgrass (blackgrass [10]; [26]): 90
Blackgrass plant response rating (blackgrass [10]; [27]): 50
Barnyardgrass plant response rating (barnyardgrass [11]; 125 g ai/ha, preemergence): 90
Plant response rating, Barnyardgrass (barnyardgrass [11]; [26]): 100
Plant response rating, Wheat (wheat [12]; [26]): 70
Wheat plant response rating (wheat [12]; [27]): 20
Plant response rating, Kochia (kochia [13]; [24]): 80
Plant response rating, Kochia (kochia [13]; [25]): 90
Plant response rating, Ragweed (ragweed [14]; [26]): 100
Ragweed plant response rating (ragweed [14]; [27]): 60
Plant response rating, Foxtail, Green (green foxtail [15]; [26]): 100
Foxtail, Green plant response rating (green foxtail [15]; [27]): 100
Plant response rating, Sedge, Umbrella (Flood) (sedge, umbrella): 98
Plant response rating, Pigweed, Palmer (pigweed, palmer [16]; [26]): 100
Pigweed, Palmer plant response rating (pigweed, palmer [16]; [27]): 100
Plant response rating, Rice (Flood) (rice): 15
Plant response rating, Soybean (soybean [17]; [24]): 100
Plant response rating, Soybean (soybean [17]; [25]): 100
Plant response rating, Barnyardgrass (barnyardgrass [18]; [24]): 90
Plant response rating, Barnyardgrass (barnyardgrass [18]; [25]): 90
Plant response rating, Corn (corn [19]; [24]): 40
Plant response rating, Corn (corn [19]; [25]): 90
Plant response rating, Galium (galium; [24]): 100
Plant response rating, Galium (galium; [25]): 100
Plant response rating, Oat, Wild (oat, wild [20]; [26]): 50
Oat, Wild plant response rating (oat, wild [20]; [27]): 30
Plant response rating, Ryegrass, Italian (ryegrass, Italian [21]; [26]): 90
Ryegrass, Italian plant response rating (ryegrass, Italian [21]; [27]): 70
Plant response rating, Foxtail, Green (green foxtail [22]; [24]): 90
Plant response rating, Foxtail, Green (green foxtail [22]; [25]): 90
Plant response rating, Barnyardgrass (Flood) (barnyardgrass [23]): 20
Plant response rating, Ducksalad (Flood) (ducksalad): 60

Source: patent US20260262643A1, “HERBICIDAL BENZOXAZINES” (FMC CORPORATION, priority 2022, published 2026)
